Non-standard residues stand in square brackets, D forms with d. Residues, ends and D or L forms follow the SMILES beside them.
How the values were obtained:
Assay type in all cases: cell-based
GPR54 [1] = target: T1, GPR54 (Homo sapiens, UniProt Q969F8); assay: Inositol phosphate (IP) antagonism assay: inhibition of 10 nM kisspeptin-10 stimulation of IP in CHO/gpr-54 cells; parameters: G. Vassart, Univ; Brussels; settings: CHO cells; 10 nM kisspeptin-10; unit inferred, given in M
Procedure: Inositol-3-phoshate Antagonistic Assay—Cell monolayers had 0.5 mls HEPES modified DMEM supplemented with […] for 30 mins at 37° C. to block IP3 breakdown. Cells were then stimulated with 0.25 mls 10 nM Kisspeptin-10 plus 0.25 mls of 10 nM Kisspeptin-10 or analogues (10 pM-10 uM) diluted at 1:1000 in the above media for 1 hr at 37° C., then in 10 mM Formic acid at 4° C. for 1 hr to lyse cells. Lysate was then transferred to plastic tubes containing 0.5 mls Dowex resin to bind the radioactive IP3 and the resin was then washed with 1 ml H2O. The resin was then washed with 60 mM NH4 formate/5 mM Sodium tetraborate followed by 1M NH4 formate/0.1M Formic acid to release the bound radiation. Then 800 μls of the radioactive solution were transferred to scintillation vials containing 2.5 mls scintillation fluid and radioactivity counted on a Beta counter for 60 seconds.
Chinese hamster ovary (CHO) cells stably-expressing the human gpr-54 receptor (CHO/gpr-54) were obtained from Prof. G. Vassart, Univ. Brussels. The cells were maintained in Dulbecco's modified Eagle's medium (DMEM; Sigma) supplemented with 10% fetal calf serum, 2% glutamine and 1% penicillin (10,000 units/ml)/streptomycin ([…]) at 37° C. in a humidified 5% CO2 atmosphere.
Experiments were repeated 3-5 times. IP production was plotted as mean values±SEM and analyzed using a Student's t-Test ([…]).

[2] = test system: HUVECs (Human Umbilical Vein Endothelial Cells); assay: Cell migration (wound healing) assay in HUVECs; settings: 22 hrs
Procedure: Human Umbilical Vein Endothelial Cells (HUVECs) isolated from neonatal umbilical cord were used as they endogenously express gpr-54, which is though to be involved in cell migration in the placenta. Chinese hamster ovary (CHO) cells which stably express the human gpr-54 receptor were used as a model cell line for wound healing assays. […] Complete media was added along with 1 nM Kisspeptin-10 for HUVECs and 100 nM Kisspeptin-10 for CHO cells, the optimal concentrations to inhibit cell migration (wound healing) in each cell type, in the presence and absence of antagonist 233, 234, 273 and 276 for HUVECs and 234 for CHOs. […] Cells were photographed on the axiovert 2000 at 20× magnification in phase contrast (Hori et al., 2001. Metastin suppresses the motility and growth of CHO cells transfected with its receptor. Biochem Biophys Res Commun 286, 958-963; Stafford et al., 2002, Identification and characterization of mouse metastasis-suppressor KiSS1 and its G-protein-coupled receptor. Cancer Res 62, 5399-5404).

GPR54 [3] = target: T1, GPR54; assay: Inositol phosphate (IP) stimulation assay in CHO/gpr-54 cells; parameters: G. Vassart, Univ; Brussels; settings: CHO cells stably-expressing human gpr-54
Procedure: Inositol-3-phoshate Stimulation Assay—Cell monolayers had 0.5 mls HEPES modified DMEM supplemented with 1% Penicillin/Streptomycin for 30 mins at 37° C. to block IP3 breakdown. Cells were then stimulated with 0.5 mls Kisspeptin-10 and analogues (10 pM-1 uM) diluted at 1:1000 in the above media for 1 hr at 37° C., then in 10 mM Formic acid at 4° C. for 1 hr to lyse cells. Lysate was then transferred to plastic tubes containing 0.5 mls Dowex resin to bind the radioactive IP3 and the resin was then washed with 1 ml H2O. The resin was then washed with 60 mM NH4 formate/5 mM Sodium tetraborate followed by 1M NH4 formate/0.1M Formic acid to release the bound radiation. Then 800 μls of the radioactive solution were transferred to scintillation vials containing 2.5 mls scintillation fluid and radioactivity counted on a Beta counter for 60 seconds.
IP stimulation refers to intrinsic residual agonist activity where estimateable.
The cells were maintained in Dulbecco's modified Eagle's medium (DMEM; Sigma) supplemented with 10% fetal calf serum, 2% glutamine and 1% penicillin (10,000 units/ml)/streptomycin (10,000 mg/ml) at 37° C. in a humidified 5% CO2 atmosphere.
Prior to stimulation CHO/gpr-54 cells were washed twice with Dulbecco's phosphate-buffered saline (DPBS; without calcium or magnesium) then incubated overnight with ^3H-myoinositol, labeled HEPES-modified DMEM with 1% penicillin/streptomycin at 37° C. HEPES-modified DMEM supplemented with 1% penicillin/streptomycin and 1% lithium chloride (0.5 ml) was added to cells for 30 min at 37° C. to block IP hydrolysis. Cells were then stimulated with 0.5 ml kisspeptin-10 and analogues (10 pM-1 μM) diluted at 1:100 in the above media for 1 h at 37° C., then with 10 mM formic acid at 4° C. for 1 h to lyse cells. Lysates were transferred to plastic tubes containing 0.5 ml Dowex resin to bind the radioactive IP and the resin was then washed with 1 ml water. The resin was next washed with 60 mM ammonium formate/5 mM sodium tetraborate. followed by 1M ammonium formate/0.1M formic acid to release the bound radiation. Then 800 μl of the radioactive solution were transferred to scintillation vials containing 2.5 ml scintillation fluid and radioactivity counted on a Beta counter for 60 sec. Experiments were repeated 3-5 times. IP production was plotted as mean values±SEM and analyzed by using a Student's t-Test (p≧0.05).

T1 sequence (Q969F8 whole entry): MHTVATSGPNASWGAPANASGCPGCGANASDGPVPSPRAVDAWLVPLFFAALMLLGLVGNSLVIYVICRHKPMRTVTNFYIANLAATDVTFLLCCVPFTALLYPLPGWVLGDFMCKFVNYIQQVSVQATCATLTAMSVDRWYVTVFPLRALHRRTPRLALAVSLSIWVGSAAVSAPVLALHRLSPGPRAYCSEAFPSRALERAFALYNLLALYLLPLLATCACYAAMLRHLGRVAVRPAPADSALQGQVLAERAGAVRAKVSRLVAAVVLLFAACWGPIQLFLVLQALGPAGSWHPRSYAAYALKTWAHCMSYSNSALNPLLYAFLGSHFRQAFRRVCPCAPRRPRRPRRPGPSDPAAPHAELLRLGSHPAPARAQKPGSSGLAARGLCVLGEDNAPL

Structure (SMILES): CC(=O)N[C@@H](Cc1ccc(O)cc1)C(=O)N[C@@H](CC(N)=O)C(=O)N[C@@H](Cc1c[nH]c2ccccc12)C(=O)N[C@@H](CC(N)=O)C(=O)N[C@H](C)C(=O)N[C@@H](Cc1ccccc1)C(=O)NCC(=O)N[C@H](Cc1c[nH]c2ccccc12)C(=O)N[C@@H](CCCNC(=N)N)C(=O)N[C@@H](Cc1ccccc1)C(N)=O [Peptide 233] (Ac-YNWN[dA]FG[dW]RF-NH2)
- IC50 (GPR54 [1]): 20 nM
- inhibition of migration by 1 nM Kisspeptin in the presence of peptide [2]: 10%
- stimulation of IP by the peptide alone (GPR54 [3]): little or no stimulation

From patent US8916681B2, “Compound, use and method” (Medical Research Council, priority 2007, dated 2014)
